Experimental data published in patent publication US9592221B2, “Antibacterial agents: aryl myxopyronin derivatives” (priority 2012, dated 2017).

Columns and labels:
Burkholderia mallei CHN7 = experiment: microbe, parasite or virus in culture; type: cell-based; conditions: Burkholderia mallei, CHN7, read-out: MIC B. mallei CHN7
[1] = system: Mycobacterium tuberculosis H37Rv; experiment: MIC, microplate Alamar Blue assay, M. tuberculosis; type: cell-based
[2] = system: Burkholderia pseudomallei Human/Blood/OH/US/1994; experiment: microbe, parasite or virus in culture; type: cell-based; conditions: Burkholderia pseudomallei, read-out: MIC B. pseudomallei Human/Blood/OH
[3] = system: Acinetobacter baumannii ATCC 19606; experiment: MIC, spiral gradient endpoint assay, A. baumannii; type: cell-based; conditions: ATCC19606; Acinetobacter baumannii ATCC 19606
[4] = biological target: E. coli RNA polymerase σ^70 holoenzyme (Escherichia coli, UniProt P0A8T7+P0A8V2); experiment: Fluorescence-detected RNA polymerase assay, E. coli RNA polymerase; type: biochemical; conditions: read-out: IC50 E. coli RNAP
Sequence of E. coli RNA polymerase σ^70 holoenzyme (P0A8T7 whole entry): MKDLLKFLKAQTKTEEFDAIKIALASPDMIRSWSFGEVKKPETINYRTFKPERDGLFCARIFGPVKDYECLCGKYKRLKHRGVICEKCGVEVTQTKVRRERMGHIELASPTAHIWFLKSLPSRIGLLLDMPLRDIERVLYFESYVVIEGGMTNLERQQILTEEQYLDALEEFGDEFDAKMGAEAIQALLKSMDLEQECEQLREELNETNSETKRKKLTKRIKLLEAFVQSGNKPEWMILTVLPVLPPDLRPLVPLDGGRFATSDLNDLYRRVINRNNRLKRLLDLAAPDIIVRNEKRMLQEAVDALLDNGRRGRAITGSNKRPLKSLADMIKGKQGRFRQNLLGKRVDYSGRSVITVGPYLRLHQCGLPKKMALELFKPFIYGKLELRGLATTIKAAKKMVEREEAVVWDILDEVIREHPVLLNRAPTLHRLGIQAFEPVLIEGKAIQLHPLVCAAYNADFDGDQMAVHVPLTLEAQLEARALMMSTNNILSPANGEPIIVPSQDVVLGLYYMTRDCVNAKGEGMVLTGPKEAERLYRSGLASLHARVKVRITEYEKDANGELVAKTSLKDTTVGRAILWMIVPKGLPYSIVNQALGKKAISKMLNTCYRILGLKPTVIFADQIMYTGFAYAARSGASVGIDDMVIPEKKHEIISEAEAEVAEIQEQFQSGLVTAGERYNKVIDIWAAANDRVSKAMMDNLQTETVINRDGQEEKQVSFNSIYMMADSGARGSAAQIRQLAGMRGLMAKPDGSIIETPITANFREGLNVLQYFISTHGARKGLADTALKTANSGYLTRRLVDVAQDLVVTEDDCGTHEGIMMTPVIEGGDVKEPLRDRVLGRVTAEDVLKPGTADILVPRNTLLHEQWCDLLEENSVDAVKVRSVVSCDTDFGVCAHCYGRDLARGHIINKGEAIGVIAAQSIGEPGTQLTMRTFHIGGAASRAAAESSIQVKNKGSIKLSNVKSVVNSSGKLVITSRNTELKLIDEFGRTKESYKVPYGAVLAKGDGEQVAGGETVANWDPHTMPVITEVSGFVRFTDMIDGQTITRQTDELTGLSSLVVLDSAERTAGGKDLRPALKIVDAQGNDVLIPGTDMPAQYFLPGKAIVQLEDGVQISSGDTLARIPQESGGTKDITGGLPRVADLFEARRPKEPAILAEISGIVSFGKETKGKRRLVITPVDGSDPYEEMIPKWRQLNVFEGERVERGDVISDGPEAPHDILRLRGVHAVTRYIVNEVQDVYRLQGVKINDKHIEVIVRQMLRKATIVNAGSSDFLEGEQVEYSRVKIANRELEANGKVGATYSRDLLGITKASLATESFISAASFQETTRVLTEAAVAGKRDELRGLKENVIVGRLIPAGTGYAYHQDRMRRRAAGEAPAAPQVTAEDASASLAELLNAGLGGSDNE
Sequence of E. coli RNA polymerase σ^70 holoenzyme (P0A800 whole entry, further chain): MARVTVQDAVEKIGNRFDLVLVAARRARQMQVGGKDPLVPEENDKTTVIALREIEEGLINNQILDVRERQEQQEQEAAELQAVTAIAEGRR
Sequence of E. coli RNA polymerase σ^70 holoenzyme (P0A8V2 whole entry): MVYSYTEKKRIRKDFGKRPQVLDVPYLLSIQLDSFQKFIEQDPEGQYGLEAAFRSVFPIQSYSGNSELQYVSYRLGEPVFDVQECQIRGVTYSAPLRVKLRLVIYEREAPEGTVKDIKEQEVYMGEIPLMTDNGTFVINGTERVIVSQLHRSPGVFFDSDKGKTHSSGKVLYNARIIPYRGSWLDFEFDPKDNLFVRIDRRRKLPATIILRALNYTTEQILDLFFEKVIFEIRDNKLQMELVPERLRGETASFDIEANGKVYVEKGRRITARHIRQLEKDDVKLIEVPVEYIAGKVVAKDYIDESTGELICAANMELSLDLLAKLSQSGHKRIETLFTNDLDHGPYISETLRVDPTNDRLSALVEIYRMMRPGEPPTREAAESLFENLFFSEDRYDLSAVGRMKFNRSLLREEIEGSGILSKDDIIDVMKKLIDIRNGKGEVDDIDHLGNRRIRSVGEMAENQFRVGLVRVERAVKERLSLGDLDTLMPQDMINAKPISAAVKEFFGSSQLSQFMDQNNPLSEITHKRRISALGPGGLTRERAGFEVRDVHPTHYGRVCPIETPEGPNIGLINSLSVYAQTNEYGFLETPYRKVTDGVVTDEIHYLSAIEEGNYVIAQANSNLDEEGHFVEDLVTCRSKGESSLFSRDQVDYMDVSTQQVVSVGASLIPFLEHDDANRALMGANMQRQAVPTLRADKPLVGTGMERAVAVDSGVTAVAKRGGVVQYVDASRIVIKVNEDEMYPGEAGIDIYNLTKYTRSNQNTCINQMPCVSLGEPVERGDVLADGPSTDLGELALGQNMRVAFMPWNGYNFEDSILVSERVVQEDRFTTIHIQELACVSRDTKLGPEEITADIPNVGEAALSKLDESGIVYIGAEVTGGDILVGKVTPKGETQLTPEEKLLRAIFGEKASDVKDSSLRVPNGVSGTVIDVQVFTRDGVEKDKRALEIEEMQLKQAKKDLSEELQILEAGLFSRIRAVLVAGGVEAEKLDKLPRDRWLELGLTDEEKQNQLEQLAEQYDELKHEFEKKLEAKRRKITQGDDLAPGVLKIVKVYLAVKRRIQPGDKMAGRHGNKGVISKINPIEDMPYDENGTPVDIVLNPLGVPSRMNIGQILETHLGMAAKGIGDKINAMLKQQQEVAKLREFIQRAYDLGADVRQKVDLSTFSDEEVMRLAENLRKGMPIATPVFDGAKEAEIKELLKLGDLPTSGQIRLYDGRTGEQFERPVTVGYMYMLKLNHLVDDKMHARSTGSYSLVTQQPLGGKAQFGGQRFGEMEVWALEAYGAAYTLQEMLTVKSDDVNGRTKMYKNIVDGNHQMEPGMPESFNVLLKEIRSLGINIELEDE
Sequence of E. coli RNA polymerase σ^70 holoenzyme (P00579 whole entry, further chain): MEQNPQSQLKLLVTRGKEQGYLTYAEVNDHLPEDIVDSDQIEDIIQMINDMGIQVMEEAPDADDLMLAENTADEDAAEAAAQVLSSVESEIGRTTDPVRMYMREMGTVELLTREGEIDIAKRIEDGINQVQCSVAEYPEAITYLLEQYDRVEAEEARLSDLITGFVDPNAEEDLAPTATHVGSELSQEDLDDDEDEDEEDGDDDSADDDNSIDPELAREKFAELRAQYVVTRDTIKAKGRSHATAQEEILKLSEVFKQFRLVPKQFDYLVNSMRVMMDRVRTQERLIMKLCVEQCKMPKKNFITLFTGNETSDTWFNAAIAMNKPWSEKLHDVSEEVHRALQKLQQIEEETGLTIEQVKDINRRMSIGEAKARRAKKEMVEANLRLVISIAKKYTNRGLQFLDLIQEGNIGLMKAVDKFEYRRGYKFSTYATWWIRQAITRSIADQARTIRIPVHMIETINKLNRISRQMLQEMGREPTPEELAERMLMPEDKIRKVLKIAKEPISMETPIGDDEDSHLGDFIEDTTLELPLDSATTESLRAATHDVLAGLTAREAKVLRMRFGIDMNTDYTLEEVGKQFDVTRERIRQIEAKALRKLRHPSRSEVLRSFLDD
Sequence of E. coli RNA polymerase σ^70 holoenzyme (P0A7Z4 whole entry, further chain): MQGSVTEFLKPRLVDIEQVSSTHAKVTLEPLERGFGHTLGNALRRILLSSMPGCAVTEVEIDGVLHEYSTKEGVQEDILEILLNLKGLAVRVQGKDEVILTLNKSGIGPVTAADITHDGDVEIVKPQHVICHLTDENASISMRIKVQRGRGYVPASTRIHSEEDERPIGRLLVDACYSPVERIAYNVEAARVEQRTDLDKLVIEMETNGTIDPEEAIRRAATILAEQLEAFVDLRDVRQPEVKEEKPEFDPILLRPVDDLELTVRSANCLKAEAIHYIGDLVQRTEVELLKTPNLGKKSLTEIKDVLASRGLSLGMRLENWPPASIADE

Yersinia pestis C092 = experiment: microbe, parasite or virus in culture; type: cell-based; conditions: Yersinia pestis, C092, read-out: MIC Y. pestis C092
Brucella melitensis 16M = experiment: microbe, parasite or virus in culture; type: cell-based; conditions: Brucella melitensis, 16M, read-out: MIC B. melitensis 16M
[5] = system: Escherichia coli D21f2tolC; experiment: MIC, spiral gradient endpoint assay, E. coli D21f2tolC; type: cell-based; conditions: Escherichia coli, D21F2TOLC, read-out: MIC E. coli D21f2toIC
[6] = system: Francisella tularensis SCHU4; experiment: microbe, parasite or virus in culture; type: cell-based; conditions: Francisella tularensis, SCHU4, read-out: MIC F. tularensis SCHU4
[7] = system: Bacillus anthracis Vollum 1b; experiment: microbe, parasite or virus in culture; type: cell-based; conditions: Bacillus anthracis, VOLLUM1B, read-out: MIC B. anthracis Vollum-1b
[8] = system: Staphylococcus aureus ATCC 12600; experiment: MIC, spiral gradient endpoint assay, S. aureus ATCC 12600; type: cell-based; conditions: ATCC12600; Staphylococcus aureus ATCC 12600

| SMILES | MIC (Burkholderia mallei CHN7) | MIC [1] | MIC [2] | MIC [3] | IC50 [4] | MIC (Yersinia pestis C092) | MIC (Brucella melitensis 16M) | MIC [5] | MIC [6] | MIC [7] | MIC [8] |
| --- | --- | --- | --- | --- | --- | --- | --- | --- | --- | --- | --- |
| COC(=O)N/C=C/CCC(C)c1cc(O)c(C(=O)C(C)=Cc2ccc(OCC(F)F)s2)c(=O)o1 (mixture of isomers) [APY138, methyl ((1E)-5-(3-(3-(5-(2,2-difluoroethoxy)thiophen-2-yl)-2-methylacryloyl)-4-hydroxy-2-oxo-2H-pyran-6-yl)hex-1-en-1-yl)carbamate] | > 50 µg/mL | 10 µg/mL | > 50 µg/mL | > 40 µg/mL | 300 nM | 50 µg/mL | 50 µg/mL | 0.5 µg/mL | > 50 µg/mL | 50 µg/mL | 10 µg/mL |
| COC(=O)N/C=C/CCC(C)c1cc(O)c(C(=O)C(C)=Cc2cc3cc(OC(C)C)ccc3n2C)c(=O)o1 (mixture of isomers) [APY123] | > 50 µg/mL | > 50 µg/mL | > 50 µg/mL | > 40 µg/mL | 500 nM | > 50 µg/mL | > 50 µg/mL | 2 µg/mL | > 50 µg/mL | > 50 µg/mL | > 40 µg/mL |
| CCCOc1ccc(C=C(C)C(=O)c2c(O)cc(C(C)CC/C=C/NC(=O)OC)oc2=O)c(C)c1 (mixture of isomers) [APY128, methyl ((1E)-5-(4-hydroxy-3-(2-methyl-3-(2-methyl-4-propoxyphenyl)acryloyl)-2-oxo-2H-pyran-6-yl)hex-1-en-1-yl)carbamate] | > 50 µg/mL | 30 µg/mL | > 50 µg/mL | > 40 µg/mL | 500 nM | > 50 µg/mL | > 50 µg/mL | 0.6 µg/mL | > 50 µg/mL | 10 µg/mL | 4 µg/mL |
| COC(=O)N/C=C/CCC(C)c1cc(O)c(C(=O)C(C)=Cc2ccc(OCC(F)F)cc2C)c(=O)o1 (mixture of isomers) [APY131, methyl ((1E)-5-(3-(3-(4-(2,2-difluoroethoxy)-2-methylphenyl)-2-methylacryloyl)-4-hydroxy-2-oxo-2H-pyran-6-yl)hex-1-en-1-yl)carbamate] | > 50 µg/mL | 30 µg/mL | > 50 µg/mL | > 40 µg/mL | 200 nM | > 50 µg/mL | > 50 µg/mL | 0.7 µg/mL | > 50 µg/mL | 30 µg/mL | 8 µg/mL |
| COC(=O)N/C=C/CCC(C)c1cc(O)c(C(=O)C(C)=Cc2ccc(OCCC(F)(F)F)s2)c(=O)o1 (mixture of isomers) [APY139, methyl ((1E)-5-(4-hydroxy-3-(2-methyl-3-(5-(3,3,3-trifluoropropoxy)thiophen-2-yl)acryloyl)-2-oxo-2H-pyran-6-yl)hex-1-en-1-yl)carbamate] | 50 µg/mL | 6 µg/mL | > 50 µg/mL | > 40 µg/mL | 30 nM | 10 µg/mL | 10 µg/mL | 0.2 µg/mL | > 50 µg/mL | 6 µg/mL | 2 µg/mL |
| CCCCc1ncc(C=C(C)C(=O)c2c(O)cc(C(C)CC/C=C/NC(=O)OC)oc2=O)s1 (mixture of isomers) [APY136, methyl ((1E)-5-(3-(3-(2-butylthiazol-5-yl)-2-methylacryloyl)-4-hydroxy-2-oxo-2H-pyran-6-yl)hex-1-en-1-yl)carbamate] | 30 µg/mL | 6 µg/mL | 50 µg/mL | > 40 µg/mL | 20 nM | 10 µg/mL | 6 µg/mL | 0.2 µg/mL | > 50 µg/mL | 10 µg/mL | 1 µg/mL |
| COC(=O)N/C=C/CCC(C)c1cc(O)c(C(=O)C(C)=Cc2cccc(OCCC(C)(C)C)c2)c(=O)o1 (mixture of isomers) [APY49, methyl (E)-5-(3-((E/Z)-3-(3-(3,3-dimethylbutoxy)phenyl)-2-methylacryloyl)-4-hydroxy-2-oxo-2H-pyran-6-yl)hex-1-enylcarbamate] | 50 µg/mL | 50 µg/mL | > 50 µg/mL | > 40 µg/mL | 10 nM | > 50 µg/mL | 10 µg/mL | 0.3 µg/mL | 30 µg/mL | 10 µg/mL | > 40 µg/mL |
